# Counter-ions that a name gives are not always drawn. Like-named read-outs stand apart in the source and are kept apart here. Where a SMILES comes first, the peptide text is derived from it.
# Key:
# [1] = molecular target: T1, urease of P. mirabilis cell free extracts (Proteus mirabilis, UniProt P17086); type: biochemical; conditions: for type of urease inhibition: Michaelis-Menten parameters, Lineweaver-Burke plot
# T1 construct: 20ul of cell-free extract were distributed into a 96-well plate in place of the whole cell bacterial suspensions; endogenous in cells; host or cells: Proteus mirabilis HI4320, urea-induced; freeze-thaw and sonication lysate, clarified supernatant
# Protocol: For the kinetic analysis of the urease reaction in the presence of urease dampening metabolites, urease activity assays were repeated with the P. mirabilis cell free extracts. Six different inhibitor concentrations that gave linear rates of reaction over a period of 120 min were tested for their effects on urease activity in the presence of urea concentrations ranging from 0 to 500 mM. Simple linear regression was performed on the absorbance (OD562) over 120 minutes for each condition and plotted as Initial velocity (slope) vs urea concentration. These initial hyperbolic plots were converted to double-reciprocal Lineweaver-Burke plots, and the pattern of inhibition inferred from the point of intersection of the lines. Finally, the Ki for a particular compound was determined by plotting the Km/Vmax ratio (the slope of the Lineweaver-Burke plots) of each line as a function of the inhibitor concentration as described by ref. [49]. The X-intercept corresponded to –Ki.
# Jack Bean Urease (JBU) = molecular target: T2, Jack Bean Urease (JBU) (Canavalia ensiformis, UniProt P07374); type: biochemical; conditions: 0.1 U JBU, 500 mM urea
# T2 construct: purchased Sigma-Aldrich
# Protocol: To measure Jack Bean urease activity, the previously described assay was modified such that 0.1 U (1U liberates 1 µmol of ammonia from urea per minute) of JBU (Sigma-Aldrich urease from Canavalia ensiformis) were distributed into a 96-well plate in place of the bacterial suspensions. Acetohydroxamic acid (AHA), was used as a positive control and a vehicle control was used as a negative control. Percent of maximum urease activity was calculated using Area Under the Curve (AUC) relative to untreated bacteria of interest or untreated JBU. Urease activity measurement in MRSA was adapted from a recently published semi quantitative assay (See Supplementary materials for details)[48].
# 414 Supplementary Figure 13. Microbial metabolites dampen activity of purified Jack Bean
# 415 Urease (JBU). 0.1 U of JBU (1U liberates 1 µmol of ammonia from urea per minute) was
# 416 incubated at 37 °C with shaking in urease-dampening metabolites, 500mM urea, and phenol red.
# 417 A urea analogue, AHA, served as the positive control for inhibition of JBU. Absorbance
# 418 (OD562) was measured every 60 seconds for 90 minutes, and activity is expressed as percent of
# 419 maximum activity (% Max Activity) relative to untreated JBU. Graphs show mean±SD for 3
# 420 independent experiments with 3 technical replicates each. Data were analyzed by two tailed one
# 421 sample t-test to a hypothetical value of 100% activity. ***P<0.001, **P<0.002, *P<0.033.
# (1 picture or pasted object on this page, not shown here)
# [2] = molecular target: T3, urease of P. mirabilis HI4320 cell free extracts (Proteus mirabilis, UniProt P17086); type: biochemical
# T3 construct: 20ul of cell-free extract were distributed into a 96-well plate in place of the whole cell bacterial suspensions; endogenous in cells; host or cells: Proteus mirabilis HI4320, urea-induced; freeze-thaw and sonication lysate, clarified supernatant
# Protocol: To measure urease activity of the cell free extracts of P. mirabilis, P. mirabilis was cultured for ~18 h in LB broth and then sub cultured until it reached mid-log growth phase (OD600 0.2-0.5). Cultures were spun down to pellet at 10,000 rcf for 10 minutes and resuspended in saline to a final OD600 of 1.0. Cultures were then diluted 1:10 in potassium phosphate buffer pH7 supplemented with 500 mM urea and incubated at 37 °C with shaking for 1 h to induce its urease enzyme production. The isogenic urease mutant Pm ureF::kan (Supplementary Data 1) served as negative control. Cultures then were spun down to pellet at 10,000 rcf for 10 minutes and resuspended in 2 mL saline. Cultures were subjected to four cycles of freezing in liquid nitrogen and thawing in a 37 °C water bath. Cultures were then probe sonicated (on ice) at 25% amplitude for 10 sec. Sonicated cultures were centrifuged at 18,900 Xg for 5 min and supernatants were transferred to a clean tube and stored on ice. To measure urease activity of cell free extracts, the previously described assay was modified such that 20ul of cell-free extract were distributed into a 96-well plate in place of the whole cell bacterial suspensions. Acetohydroxamic acid (AHA), was used as a positive control. Percent of maximum urease activity was calculated using Area Under the Curve (AUC) relative to untreated cell free extracts of P. mirabilis.
# P. mirabilis urease [3] = molecular target: T4, P. mirabilis urease (Proteus mirabilis, UniProt P17086); type: cell-based; conditions: for Dampens urease activity: biosynthetic pathway/functional group screen; for effect on P. mirabilis urease activity (whole cell): potassium phosphate buffer, dose response
# T4 construct: it utilizes whole bacterial cells, rather than isolated enzyme preparations; endogenous in cells; host or cells: Proteus mirabilis HI4320, live whole cells
# [4] = Buffering capacity assay (NaOH titration, phenol red); type: physicochemical; conditions: high concentrations of metabolite in potassium phosphate buffer with phenol red
# Protocol: Known concentrations of sodium hydroxide were added to each well of a 96 well plate in combination with candidate dampening metabolite of interest buffered 1:10 in potassium phosphate buffer pH7. 0.01% phenol red was added to each well, and absorbance (OD562) was measured in a Synergy H1 plate reader (BioTek).
# P. mirabilis urease [5] = molecular target: T4, P. mirabilis urease; type: cell-based
# Protocol: To assess the synergistic effects of dampening metabolites when used in combination with each other, P. mirabilis urease activity was measured as described above. Between 4-6 different concentrations for each dampening metabolite were tested both alone and in combination (See Fig. 6a for example). […] To account for variability between experiments, all conditions tested were performed on a single 96-well plate with three technical replicates for each condition. To compare between biologic replicates, percent inhibition relative to untreated P. mirabilis was calculated for each condition using the average area under the curve over 120-180 minutes (so that the positive control activity curve saturated without any increase in the negative control curve).
# Statistical analysis was conducted using a one sample T test of the combination index compared to a hypothetical value of 1 (additive effect). […] Therefore, combination indexes were calculated using a desired effect size less than 40% were indicated with an * in Fig. 6b and in Supplementary Data 5.
# [6] = highest concentration tested 20mM
# [7] = screen of candidate metabolites, highest concentration tested 20mM, * Trending but not statistically significant
# [8] = highest concentration tested 10mM in 20%DMSO
# T4 sequence (P17086 whole entry): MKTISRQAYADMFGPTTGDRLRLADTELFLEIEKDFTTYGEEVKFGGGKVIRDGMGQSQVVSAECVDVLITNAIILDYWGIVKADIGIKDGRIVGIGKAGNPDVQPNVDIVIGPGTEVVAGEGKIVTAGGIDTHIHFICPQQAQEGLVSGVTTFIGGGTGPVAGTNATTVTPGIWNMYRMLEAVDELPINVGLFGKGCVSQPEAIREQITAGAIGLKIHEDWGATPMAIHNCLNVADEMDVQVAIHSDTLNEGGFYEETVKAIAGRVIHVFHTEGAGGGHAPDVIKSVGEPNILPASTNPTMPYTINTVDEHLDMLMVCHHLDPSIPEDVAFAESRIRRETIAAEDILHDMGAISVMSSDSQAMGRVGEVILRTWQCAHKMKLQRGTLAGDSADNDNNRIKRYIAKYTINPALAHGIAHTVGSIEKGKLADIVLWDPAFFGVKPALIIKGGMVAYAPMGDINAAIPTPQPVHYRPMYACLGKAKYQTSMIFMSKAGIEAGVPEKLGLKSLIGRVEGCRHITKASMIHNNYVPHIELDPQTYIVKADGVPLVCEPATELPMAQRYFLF
# T4 sequence (P17088 whole entry, further chain): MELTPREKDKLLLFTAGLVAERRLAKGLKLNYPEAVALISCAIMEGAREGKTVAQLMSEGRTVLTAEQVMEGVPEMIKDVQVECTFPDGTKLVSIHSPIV
# T4 sequence (P17087 whole entry, further chain): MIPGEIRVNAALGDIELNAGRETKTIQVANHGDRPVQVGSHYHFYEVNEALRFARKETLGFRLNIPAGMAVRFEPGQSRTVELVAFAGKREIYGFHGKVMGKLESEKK
# T1 sequence (P17086 whole entry): as the sequence (P17086 whole entry) above
# T1 sequence (P17088 whole entry, further chain): as the sequence (P17088 whole entry, further chain) above
# T1 sequence (P17087 whole entry, further chain): as the sequence (P17087 whole entry, further chain) above
# T3 sequence (P17088 whole entry): as the sequence (P17088 whole entry, further chain) above
# T3 sequence (P17086 whole entry): as the sequence (P17086 whole entry) above
# T3 sequence (P17087 whole entry, further chain): as the sequence (P17087 whole entry, further chain) above
# T2 sequence (P07374 whole entry, looked up): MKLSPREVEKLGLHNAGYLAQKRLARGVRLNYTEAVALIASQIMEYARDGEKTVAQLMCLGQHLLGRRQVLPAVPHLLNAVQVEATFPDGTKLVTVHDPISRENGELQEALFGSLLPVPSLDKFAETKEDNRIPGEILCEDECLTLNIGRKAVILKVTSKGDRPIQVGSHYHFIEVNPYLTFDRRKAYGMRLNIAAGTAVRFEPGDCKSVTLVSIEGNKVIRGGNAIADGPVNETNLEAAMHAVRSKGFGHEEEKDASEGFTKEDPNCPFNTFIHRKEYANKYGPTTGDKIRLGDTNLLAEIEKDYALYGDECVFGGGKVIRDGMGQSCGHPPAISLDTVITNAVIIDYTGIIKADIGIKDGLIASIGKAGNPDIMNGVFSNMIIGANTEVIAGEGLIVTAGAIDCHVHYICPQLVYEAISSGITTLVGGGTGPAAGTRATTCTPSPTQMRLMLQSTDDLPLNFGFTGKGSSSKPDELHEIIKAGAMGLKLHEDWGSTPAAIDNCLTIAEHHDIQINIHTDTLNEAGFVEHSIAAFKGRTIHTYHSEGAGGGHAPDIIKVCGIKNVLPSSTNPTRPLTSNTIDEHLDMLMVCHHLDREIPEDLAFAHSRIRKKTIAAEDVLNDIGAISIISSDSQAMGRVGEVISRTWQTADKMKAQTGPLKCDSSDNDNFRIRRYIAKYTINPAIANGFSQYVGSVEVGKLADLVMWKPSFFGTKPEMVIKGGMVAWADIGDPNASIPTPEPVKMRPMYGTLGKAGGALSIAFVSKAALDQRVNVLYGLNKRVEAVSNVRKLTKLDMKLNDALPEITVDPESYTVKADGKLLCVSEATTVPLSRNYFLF
smiles,measurement,setting,value
"c1c[nH]cn1 [imidazole, Imidazole]",change of estimated Km on addition of metabolite,[1],increase
same,change of estimated Vmax on addition of metabolite,[1],decrease
same,type of urease inhibition,[1],mixed inhibitors
same,JBU activity,Jack Bean Urease (JBU),inhibited
same,urease activity of cell free P. mirabilis extracts,[2],at least partially inhibiting
same,Dampens urease activity,P. mirabilis urease [3]; [6],Yes
same,effect on P. mirabilis urease activity (whole cell),P. mirabilis urease [3],additional hits
same,buffering capacity: absorbance (OD562) across NaOH concentrations,[4],consistent reduction in absorbance compared to the control
"Nc1ncnc2c1ncn2C1OC(COP(=O)(O)O)C(O)C1O (stereo not shown) [adenosine 5'-monophosphate (AMP), AMP sodium salt hydrate]",Urease dampening activity,P. mirabilis urease [3]; [7],No
NCC(=O)O [Glycine],Dampens urease activity,P. mirabilis urease [3]; [6],No
"O=Cc1c[nH]c2ccccc12 [3-formylindole, Indole-3-carboxyaldehyde]",Urease dampening activity,P. mirabilis urease [3]; [8],No
N[C@@H](Cc1c[nH]cn1)C(=O)O [L-Histidine],Dampens urease activity,P. mirabilis urease [3]; [6],No
NCCc1c[nH]cn1 [Histamine free base],Urease dampening activity,P. mirabilis urease [3]; [7],Yes*
"O=C1N[C@@H](Cc2ccc(O)cc2)C(=O)N2CCC[C@@H]12 [cyclo(pro-tyr), Cyclo(-Pro-Tyr)]",Urease dampening activity,P. mirabilis urease [3]; [7],No
"C[C@H](O)C(=O)O [L-Lactic acid, L-(+)-Lactic acid]",Dampens urease activity,P. mirabilis urease [3]; [6],No
O=C(O)C(=O)c1c[nH]c2ccccc12 [3-indoleglyoxylic acid],Urease dampening activity,P. mirabilis urease [3]; [8],No
"O=C(O)C(=O)Cc1cnc[nH]1 [Imidazole pyruvate, Imidazole pyruvic acid hydrobromide hydrate]",Dampens urease activity,P. mirabilis urease [3]; highest concentration tested 5mM,No
"Nc1ncnc2c1ncn2[C@@H]1O[C@@H]2COP(=O)(O)O[C@H]2[C@H]1O [adenosine 3',5'-cyclic monophosphate (cAMP)]",Urease dampening activity,P. mirabilis urease [3]; [7],No
"NCCc1ccccc1 [phenethylamine, 2-Phenylethylamine]",Urease dampening activity,P. mirabilis urease [3]; [7],No
N[C@@H](COP(=O)(O)O)C(=O)O [Ophospho-L-serine],Urease dampening activity,P. mirabilis urease [3]; [7],No
"CC(=O)O [Acetic acid, Acetic Acid, Glacial]",Dampens urease activity,P. mirabilis urease [3]; [6],No
"CC[C@H](C)[C@H](NC(C)=O)C(=O)O [N-acetylisoleucine, N-acetyl-L-isoleucine]",Urease dampening activity,P. mirabilis urease [3]; [7],No
"NCCCCCN [cadaverine, Cadaverine]",Urease dampening activity,P. mirabilis urease [3]; [7],No
"CCC(C)C(=O)C(=O)[O-].[Na+] (racemic) [3-methyl-2-oxovalerate, (±)-3-Methyl-2-oxovaleric acid sodium salt]",Urease dampening activity,P. mirabilis urease [3]; [7],No
"NCCCCN [putrescine, Putrescine Dihydrochloride]",Urease dampening activity,P. mirabilis urease [3]; [7],No
"O=C(O)C(=O)Cc1ccc(O)cc1 [4-hydroxyphenylpyruvate, 4-Hydroxyphenylpyruvic acid]",Urease dampening activity,P. mirabilis urease [3]; highest concentration tested 15mM in 10% ethanol,No
"N[C@@H](Cc1ccccc1)C(=O)O [phenylalanine, L-phenylalanine]",Urease dampening activity,P. mirabilis urease [3]; [7],No
CC(=O)NCCCCCN [N-(5-Aminopentyl)acetamide],Urease dampening activity,P. mirabilis urease [3]; [7],No
"Nc1ccn([C@@H]2O[C@H](CO)[C@@H](O)[C@H]2O)c(=O)n1 [cytidine, Cytidine]",Urease dampening activity,P. mirabilis urease [3]; [7],No
"O=C([O-])CCC(O)C(=O)[O-].[Na+].[Na+] (racemic) [2-hydroxyglutarate, DL-α-Hydroxyglutaric acid disodium salt]",Urease dampening activity,P. mirabilis urease [3]; [7],No
"CC(C)CC(=O)C(=O)O [4-methyl-2-oxopentanoate, 4-Methyl-2-oxovaleric acid]",Urease dampening activity,P. mirabilis urease [3]; [7],No
Cl.Cl.NCCCCCN [Cadaverine dihydrochloride],Urease dampening activity,P. mirabilis urease [3]; [7],No
"O=C1NC(Cc2ccccc2)C(=O)N2CCCC12 (stereo not shown) [cyclo(phe-pro), Cyclo(Phe-Pro)]",Urease dampening activity,P. mirabilis urease [3]; [7],No
"O=c1[nH]c(=O)c2nc[nH]c2[nH]1 [xanthine, Xanthine]",Urease dampening activity,P. mirabilis urease [3]; highest concentration tested 400uM,No
"NC(N)=NCCCC[C@H](N)C(=O)O [homoarginine, H-HoArg-OH]",Urease dampening activity,P. mirabilis urease [3]; [7],No
"NC(COP(=O)(O)O)C(=O)O (racemic) [Ophospho-D,L-serine]",Urease dampening activity,P. mirabilis urease [3]; [7],No
"CC(C)C[C@H](N)C(=O)NCC(=O)O [leucylglycine, L-Leucylglycine hydrate] (H-Leu-Gly-OH)",change of estimated Km on addition of metabolite,[1],increase
same,change of estimated Vmax on addition of metabolite,[1],decrease
same,type of urease inhibition,[1],mixed inhibitors
same,concentrations required to achieve a significant combination index,P. mirabilis urease [5],> 50 mM
same,JBU activity,Jack Bean Urease (JBU),inhibited
same,urease activity of cell free P. mirabilis extracts,[2],at least partially inhibiting
same,effect on P. mirabilis urease activity (whole cell),P. mirabilis urease [3],reproducibly decreased
same,Urease dampening activity,P. mirabilis urease [3]; [7],Yes
O=C(O)[C@@H](O)Cc1cnc[nH]1 [imidazole lactate],effect on P. mirabilis urease activity (whole cell),P. mirabilis urease [3],reproducibly decreased
"N[C@@H](Cc1ccc(O)cc1)C(=O)O [tyrosine, L-Tyrosine disodium salt dihydrate]",Urease dampening activity,P. mirabilis urease [3]; highest concentration tested 2.5mM,No
"CC(=O)NCCCCN.Cl [N-acetylputrescine, N-Acetylputrescine Hydrochloride]",Urease dampening activity,P. mirabilis urease [3]; [7],No
"OC[C@H]1O[C@@](CO)(O[C@H]2O[C@H](CO)[C@@H](O)[C@H](O)[C@H]2O)[C@@H](O)[C@@H]1O [sucrose, Sucrose]",Urease dampening activity,P. mirabilis urease [3]; [7],No
NC(N)=NCCC[C@@H](N)C(=O)O [D-Arginine],Urease dampening activity,P. mirabilis urease [3]; [7],No
N=C(N)NCCC[C@H](N)C(=O)O [L-Arginine],Urease dampening activity,P. mirabilis urease [3]; [7],No
"O=C(O)C(O)Cc1ccccc1 (racemic) [Phenyllactate, (+/-)-3-Phenyllactic acid]",Dampens urease activity,P. mirabilis urease [3]; [6],No
"O=C([O-])[C@H](O)[C@@H](O)[C@H](O)[C@H](O)CO.[Na+] [gluconate, Gluconic acid Sodium Salt]",Urease dampening activity,P. mirabilis urease [3]; [7],No

# Reference: paper PMC12583827, “Harnessing microbial-derived metabolites in the urinary tract to prevent infection induced catheter encrustation” (Nature Communications, 2025)
